This test addresses T1, human NaV1.6 (hNaV1.6) (Homo sapiens, UniProt Q9UQD0).
T1 construct: expressed in transfected cells; host or cells: HEK-293
Put plainly: Modulation of late sodium current (INaL) at hNaV1.6, PatchXpress electrophysiology. The class given is cell-based. The conditions noted are these: HEK293, HEK-293 cells expressing recombinant human NaV 1.6, late current evoked by 300 nM ATX-II, read-out: NaV 1.6 Assay Data (percent inhibition of INaL at hNaV1.6). The protocol:
Functional characterization of exemplary compounds to modulate INaL expressed by the NaV1.6 voltage-gated sodium channel was accomplished using the PatchXpress™ high throughput electrophysiology platform (Molecular Devices, Sunnyvale, CA). HEK-293 cells expressing recombinant, human NaV1.6 (hNaV1.6) were grown in DMEM/high-glucose Dulbecco's modified, 10% FBS, 2 mM sodium pyruvate, 10 mM HEPES and 400 μg/mL G418. Cells were grown to 50%-80% confluency prior to harvesting. Trypsinized cells were washed, allowed to recover for 1 hour and then resuspended in extracellular recording solution at a concentration of 1×10^6 cells/ml. The onboard liquid handling facility of the PatchXpress was used for dispensing cells and applying test compounds. NaV late currents were evoked by the application of 300 nM ATX-II. INaL was evoked by depolarizing pulses to 0 mV for 200 ms from a non-inactivating holding potential (e.g., −120 mV) at a frequency of 0.1 Hz. INaL amplitude and stability were determined by analyzing the mean current amplitude over the final 20 ms of the test pulse. Following steady state block with exemplary compounds (e.g., as described herein), a Na+ free solution containing an impermeant cation (e.g., Choline or NDMG) was added to confirm the identity of the sodium current. Percent steady-state inhibition of INaL was calculated as: […], where INaL_compound and INaL_control represent INaL recorded in the presence or absence of compound, respectively.
Results from this assay relating to percent inhibition of INaL at hNaV1.6 (measured using a procedure similar to described above but using HEK-293 cells expressing recombinant, human NaV 1.6 (h NaV 1.6) at 1 μM are summarized in Table 1 below. In this table, “A” indicates inhibition of less than 30%; “B” indicates inhibition of between about 30% to about 70%; and “C” indicates inhibition of greater than 70%. “N/A” indicates not available.

Structures are written as SMILES. Where only a bound is given, the exact number is not on record here.

For orientation: inhibition means the drop in the measured response relative to a control, in per cent.

T1 sequence (Q9UQD0 whole entry): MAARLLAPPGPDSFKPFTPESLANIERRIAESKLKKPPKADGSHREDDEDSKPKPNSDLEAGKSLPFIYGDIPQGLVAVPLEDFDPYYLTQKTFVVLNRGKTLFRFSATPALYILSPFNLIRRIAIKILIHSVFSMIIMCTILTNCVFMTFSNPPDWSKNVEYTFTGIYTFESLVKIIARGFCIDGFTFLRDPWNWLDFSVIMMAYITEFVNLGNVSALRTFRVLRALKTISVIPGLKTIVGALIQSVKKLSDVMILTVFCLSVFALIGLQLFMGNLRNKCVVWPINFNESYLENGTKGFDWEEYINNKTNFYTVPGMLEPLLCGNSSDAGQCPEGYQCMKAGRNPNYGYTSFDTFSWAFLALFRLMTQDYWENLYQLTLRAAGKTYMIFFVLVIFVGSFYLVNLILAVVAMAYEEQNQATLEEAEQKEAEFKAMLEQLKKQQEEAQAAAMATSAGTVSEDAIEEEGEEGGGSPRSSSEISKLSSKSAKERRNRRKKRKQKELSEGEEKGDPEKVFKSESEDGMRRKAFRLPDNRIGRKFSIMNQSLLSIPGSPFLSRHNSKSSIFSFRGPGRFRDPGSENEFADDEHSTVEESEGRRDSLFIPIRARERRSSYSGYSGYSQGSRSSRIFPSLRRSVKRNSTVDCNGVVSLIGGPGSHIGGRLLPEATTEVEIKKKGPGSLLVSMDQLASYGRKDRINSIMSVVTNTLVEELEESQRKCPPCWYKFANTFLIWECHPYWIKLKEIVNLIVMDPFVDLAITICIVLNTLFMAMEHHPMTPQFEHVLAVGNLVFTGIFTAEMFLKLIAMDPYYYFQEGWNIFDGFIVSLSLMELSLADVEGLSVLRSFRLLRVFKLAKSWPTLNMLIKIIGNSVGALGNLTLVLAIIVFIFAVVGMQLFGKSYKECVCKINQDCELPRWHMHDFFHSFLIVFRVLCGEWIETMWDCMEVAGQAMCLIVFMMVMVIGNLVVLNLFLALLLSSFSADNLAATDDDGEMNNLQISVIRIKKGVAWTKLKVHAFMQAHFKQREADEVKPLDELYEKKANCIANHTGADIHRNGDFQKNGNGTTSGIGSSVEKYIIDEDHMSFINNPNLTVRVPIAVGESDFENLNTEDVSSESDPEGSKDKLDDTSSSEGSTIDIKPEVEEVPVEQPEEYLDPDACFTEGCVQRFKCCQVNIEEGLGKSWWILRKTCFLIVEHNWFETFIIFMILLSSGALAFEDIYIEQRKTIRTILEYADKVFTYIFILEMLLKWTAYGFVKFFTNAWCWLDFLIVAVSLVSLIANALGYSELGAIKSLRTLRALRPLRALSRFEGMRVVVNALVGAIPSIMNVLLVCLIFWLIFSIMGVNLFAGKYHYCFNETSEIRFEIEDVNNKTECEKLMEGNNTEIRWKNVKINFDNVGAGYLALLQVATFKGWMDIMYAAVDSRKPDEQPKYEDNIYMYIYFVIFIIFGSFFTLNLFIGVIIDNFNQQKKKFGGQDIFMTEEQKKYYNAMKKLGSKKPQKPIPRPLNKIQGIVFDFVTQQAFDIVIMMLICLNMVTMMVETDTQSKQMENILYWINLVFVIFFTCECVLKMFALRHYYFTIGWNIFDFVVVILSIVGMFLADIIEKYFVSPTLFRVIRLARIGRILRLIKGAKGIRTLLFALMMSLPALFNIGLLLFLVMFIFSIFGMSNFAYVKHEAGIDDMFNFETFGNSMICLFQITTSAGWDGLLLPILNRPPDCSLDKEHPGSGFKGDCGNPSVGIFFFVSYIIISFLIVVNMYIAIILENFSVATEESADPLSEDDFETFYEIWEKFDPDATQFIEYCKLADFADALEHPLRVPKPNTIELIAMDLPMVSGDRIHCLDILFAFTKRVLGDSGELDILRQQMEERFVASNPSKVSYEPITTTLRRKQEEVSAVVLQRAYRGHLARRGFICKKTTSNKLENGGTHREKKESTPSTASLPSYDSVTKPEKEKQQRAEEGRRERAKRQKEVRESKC

Consider `COC(C)(C)c1nnc2cnc(-c3cnc(O[C@H](C)C(F)(F)F)c(F)c3)cn12` [Compound II-8, (R)-6-(5-fluoro-6-((1,1,1-trifluoropropan-2-yl)oxy)pyridin-3-yl)-3-(2-methoxypropan-2-yl)-[1,2,4]triazolo[4,3-a]pyrazine], for which the inhibition at 1 µM fell in the range of 30 to 70%. Then `FC(F)(F)c1nnc2cnc(-c3ccc(O[C@H](C4CC4)C(F)(F)F)nc3)cn12` (single isomer, unassigned) [Compound III-14], with 30 to 70%. Then `COC(F)(F)c1nnc2cnc(-c3ccc([C@H]4CC4(F)F)cc3C)cn12` (single isomer, unassigned) [Compound III-7], with over 70%. Then `COC(C)(C)c1nnc2cnc(-c3cnc(OC(C)(C)C(F)(F)F)c(F)c3)cn12` [Compound II-10, 6-[5-fluoro-6-(2,2,2-trifluoro-1,1-dimethyl-ethoxy)-3-pyridyl]-3-(1-methoxy-1-methyl-ethyl)-[1,2,4]triazolo[4,3-a]pyrazine], with over 70%; and `FC(F)(F)c1nnc2cnc(-c3ccc(O[C@@H](C4CC4)C(F)(F)F)nc3)cn12` [Compound III-15, (S)-6-(6-(1-cyclopropyl-2,2,2-trifluoroethoxy)pyridin-3-yl)-3-(trifluoromethyl)-[1,2,4]triazolo[4,3-a]pyrazine], with over 70%; and `C[C@H](Oc1ccc(-c2cn3c(C(F)F)nnc3cn2)cn1)C(F)(F)F` [Compound III-16, (S)-3-(difluoromethyl)-6-(6-((1,1,1-trifluoropropan-2-yl)oxy)pyridin-3-yl)-[1,2,4]triazolo[4,3-a]pyrazine], with over 70%. Regarding `CCO[C@H](C)c1nnc2cnc(-c3cnc(OC(C)(C)C(F)(F)F)c(F)c3)cn12` [Compound I-13, (R)-3-(1-ethoxyethyl)-6-(5-fluoro-6-((1,1,1-trifluoro-2-methylpropan-2-yl)oxy)pyridin-3-yl)-[1,2,4]triazolo[4,3-a]pyrazine], the inhibition at 1 µM was 30 to 70%. The result for `CO[C@@H](C)c1nnc2cnc(-c3cnc(O[C@H](C4CC4)C(F)(F)F)c(F)c3)cn12` (single isomer, unassigned) [Compound I-16] reads 30 to 70%; that for `CCO[C@@H](C)c1nnc2cnc(-c3ccc(OC(C)(C)C(F)(F)F)nc3)cn12` [Compound I-8, (S)-3-(1-ethoxyethyl)-6-(6-((1,1,1-trifluoro-2-methylpropan-2-yl)oxy)pyridin-3-yl)-[1,2,4]triazolo[4,3-a]pyrazine], 30 to 70%. As to `CO[C@@H](C)c1nnc2cnc(-c3ccc(OC4(C(F)(F)F)CCC4)nc3)cn12` (single isomer, unassigned) [Compound I-5], the inhibition at 1 µM lay within 30 to 70%. Take `COC(C)(C)c1nnc2cnc(-c3ccc(OC(C)C(F)(F)F)nc3)cn12` (racemic) [Compound II-6, 3-(1-methoxy-1-methyl-ethyl)-6-[6-[rac-(1R)-2,2,2-trifluoro-1-methyl-ethoxy]-3-pyridyl]-[1,2,4]triazolo[4,3-a]pyrazine]: the inhibition at 1 µM was under 30%. Then `CO[C@@H](C)c1nnc2cnc(-c3cnc(O[C@@H](C4CC4)C(F)(F)F)c(F)c3)cn12` (single isomer, unassigned) [Compound I-18], with 30 to 70%; and `COC(C)(C)c1nnc2cnc(-c3ccc(OC(C)(C)C(F)(F)F)nc3)cn12` [Compound II-14, 3-(1-methoxy-1-methyl-ethyl)-6-[6-(2,2,2-trifluoro-1,1-dimethyl-ethoxy)-3-pyridyl]-[1,2,4]triazolo[4,3-a]pyrazine], with 30 to 70%. Then `COC(C)(C)c1nnc2cnc(-c3ccc(OC4(C(F)(F)F)CCC4)nc3)cn12` [Compound II-13, 3-(1-methoxy-1-methyl-ethyl)-6-[6-[1-(trifluoromethyl)cyclobutoxy]-3-pyridyl]-[1,2,4]triazolo[4,3-a]pyrazine], with 30 to 70%. Then `COC(F)(F)c1nnc2cnc(-c3ccc([C@H](C)OCC(F)(F)F)cc3)cn12` (single isomer, unassigned) [Compound III-18], with under 30%. With `CO[C@@H](C)c1nnc2cnc(-c3ccc(OC(C)(C)C(F)(F)F)nc3)cn12` (single isomer, unassigned) [Compound I-10], the inhibition at 1 µM lay in the range of 30 to 70%. Regarding `CCOC(F)(F)c1nnc2cnc(-c3ccc(COCC(F)(F)F)cc3)cn12` [Compound III-11, 3-(ethoxydifluoromethyl)-6-(4-((2,2,2-trifluoroethoxy)methyl)phenyl)-[1,2,4]triazolo[4,3-a]pyrazine], the inhibition at 1 µM was in the range of 30 to 70%.

Take `CO[C@H](C)c1nnc2cnc(-c3cnc(OC(C)(C)C(F)(F)F)c(F)c3)cn12` (single isomer, unassigned) [Compound I-1]: the inhibition at 1 µM is over 70%. As for `COCC(F)(F)Oc1ccc(-c2cn3c(C(F)(F)F)nnc3cn2)cc1` [Compound III-12, 6-(4-(1,1-difluoro-2-methoxyethoxy)phenyl)-3-(trifluoromethyl)-[1,2,4]triazolo[4,3-a]pyrazine], the inhibition at 1 µM lay in the range of 30 to 70%. As for `COC(F)(F)c1nnc2cnc(-c3ccc(COCC(F)(F)F)cc3C)cn12` [Compound III-6, 3-[difluoro(methoxy)methyl]-6-[2-methyl-4-(2,2,2-trifluoroethoxymethyl)phenyl]-[1,2,4]triazolo[4,3-a]pyrazine], the inhibition at 1 µM lay within 30 to 70%. Turning to `COC(F)(F)c1nnc2cnc(-c3ccc([C@@H]4CC4(F)F)cc3C)cn12` (single isomer, unassigned) [Compound III-8], the inhibition at 1 µM is over 70%.

`COC1(c2nnc3cnc(-c4cnc(OCC(F)(F)F)c(F)c4)cn23)CC1` [Compound II-1, 6-(5-fluoro-6-(2,2,2-trifluoroethoxy)pyridin-3-yl)-3-(1-methoxycyclopropyl)-[1,2,4]triazolo[4,3-a]pyrazine]: the inhibition at 1 µM is under 30%. For `CCO[C@@H](C)c1nnc2cnc(-c3ccc(OC4(C(F)(F)F)CCC4)nc3)cn12` [Compound I-11, (S)-3-(1-ethoxyethyl)-6-(6-(1-(trifluoromethyl)cyclobutoxy)pyridin-3-yl)-[1,2,4]triazolo[4,3-a]pyrazine], the inhibition at 1 µM was 30 to 70%.

`CO[C@H](C)c1nnc2cnc(-c3cnc(OC4(C(F)(F)F)CCC4)c(F)c3)cn12` (single isomer, unassigned) [Compound I-3]: the inhibition at 1 µM is 30 to 70%. The result for `CCOC(F)(F)c1nnc2cnc(-c3ccc([C@H](C)OCC(F)(F)F)cc3)cn12` (single isomer, unassigned) [Compound III-20] reads 30 to 70%.

(Values after US12145939B2, “Substituted [1,2,4]triazolo[4,3-a]pyrazines as ion channel modulators” (PRAXIS PRECISION MEDICINES, INC., priority 2019, dated 2024).)
